# Columns and labels:
# Assay in all cases: radiometric filter-binding kinase assay, Kinase HotSpot
# Details in all cases: compound 0.5 µM; ATP 10 µM
# RPS6KA3 KD1 KD2 (human) = RPS6KA3 KD1 KD2 (human) (UniProt P51812)
# ULK3 (human) = ULK3 (human) (UniProt Q6PHR2)
# FLT3 (human) = FLT3 (human) (UniProt P36888)
# ADRBK2 (human) = ADRBK2 (human) (UniProt P35626)
# [1] = tested on: FLT4 (human), P35916 [Q890H]
# DSTYK (human) = DSTYK (human) (UniProt Q6XUX3)
# ALK (human) = ALK (human) (UniProt Q9UM73)
# MARK1 (human) = MARK1 (human) (UniProt Q9P0L2)
# STK38 (human) = STK38 (human) (UniProt Q15208)
# AKT2 (human) = AKT2 (human) (UniProt P31751)
# IRAK1 (human) = IRAK1 (human) (UniProt P51617)
# TNK2 (human) = TNK2 (human) (UniProt Q07912)
# SRPK2 (human) = SRPK2 (human) (UniProt P78362)
# MATK (human) = MATK (human) (UniProt P42679)
# PBK (human) = PBK (human) (UniProt Q96KB5)
# SIK2 (human) = SIK2 (human) (UniProt Q9H0K1)
# GSG2 (human) = GSG2 (human) (UniProt Q8TF76)
# GSG2 (human), sequence (Q8TF76 whole entry, looked up): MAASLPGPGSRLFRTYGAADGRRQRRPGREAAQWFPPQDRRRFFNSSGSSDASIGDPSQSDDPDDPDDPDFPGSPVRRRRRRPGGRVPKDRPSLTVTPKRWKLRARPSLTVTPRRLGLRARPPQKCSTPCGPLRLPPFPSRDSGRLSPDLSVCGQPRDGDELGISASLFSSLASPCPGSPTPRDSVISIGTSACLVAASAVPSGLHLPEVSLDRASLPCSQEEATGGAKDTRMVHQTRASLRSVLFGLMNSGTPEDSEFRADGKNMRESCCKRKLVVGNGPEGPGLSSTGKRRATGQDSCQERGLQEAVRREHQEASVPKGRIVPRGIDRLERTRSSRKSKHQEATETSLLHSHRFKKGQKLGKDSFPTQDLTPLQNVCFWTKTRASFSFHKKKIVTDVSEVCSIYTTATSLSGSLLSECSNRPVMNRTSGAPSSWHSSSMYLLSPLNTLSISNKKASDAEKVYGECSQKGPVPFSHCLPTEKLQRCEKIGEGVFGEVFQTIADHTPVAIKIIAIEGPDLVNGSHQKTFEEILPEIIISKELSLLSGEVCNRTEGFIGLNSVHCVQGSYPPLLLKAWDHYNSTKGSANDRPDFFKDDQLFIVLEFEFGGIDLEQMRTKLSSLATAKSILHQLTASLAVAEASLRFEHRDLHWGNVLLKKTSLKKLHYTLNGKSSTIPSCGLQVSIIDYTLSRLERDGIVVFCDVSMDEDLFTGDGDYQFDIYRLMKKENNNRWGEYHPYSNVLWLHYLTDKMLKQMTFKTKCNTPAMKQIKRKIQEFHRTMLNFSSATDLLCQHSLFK
# MYO3B (human) = MYO3B (human) (UniProt Q8WXR4)
# DCLK2 (human) = DCLK2 (human) (UniProt Q8N568)
# OXSR1 (human) = OXSR1 (human) (UniProt O95747)
# WEE1 (human) = WEE1 (human) (UniProt P30291)
# PDGFRA (human) = PDGFRA (human) (UniProt P16234)
# STK4 (human) = STK4 (human) (UniProt Q13043)
# DYRK3 (human) = DYRK3 (human) (UniProt O43781)
# CDK7 CCNH MNAT1 (human) = CDK7 CCNH MNAT1 (human) (UniProt P50613+P51948+P51946)
# NUAK2 (human) = NUAK2 (human) (UniProt Q9H093)
# TLK2 (human) = TLK2 (human) (UniProt Q86UE8)
# DAPK1 (human) = DAPK1 (human) (UniProt P53355)
# DAPK1 (human), sequence (P53355 whole entry, looked up): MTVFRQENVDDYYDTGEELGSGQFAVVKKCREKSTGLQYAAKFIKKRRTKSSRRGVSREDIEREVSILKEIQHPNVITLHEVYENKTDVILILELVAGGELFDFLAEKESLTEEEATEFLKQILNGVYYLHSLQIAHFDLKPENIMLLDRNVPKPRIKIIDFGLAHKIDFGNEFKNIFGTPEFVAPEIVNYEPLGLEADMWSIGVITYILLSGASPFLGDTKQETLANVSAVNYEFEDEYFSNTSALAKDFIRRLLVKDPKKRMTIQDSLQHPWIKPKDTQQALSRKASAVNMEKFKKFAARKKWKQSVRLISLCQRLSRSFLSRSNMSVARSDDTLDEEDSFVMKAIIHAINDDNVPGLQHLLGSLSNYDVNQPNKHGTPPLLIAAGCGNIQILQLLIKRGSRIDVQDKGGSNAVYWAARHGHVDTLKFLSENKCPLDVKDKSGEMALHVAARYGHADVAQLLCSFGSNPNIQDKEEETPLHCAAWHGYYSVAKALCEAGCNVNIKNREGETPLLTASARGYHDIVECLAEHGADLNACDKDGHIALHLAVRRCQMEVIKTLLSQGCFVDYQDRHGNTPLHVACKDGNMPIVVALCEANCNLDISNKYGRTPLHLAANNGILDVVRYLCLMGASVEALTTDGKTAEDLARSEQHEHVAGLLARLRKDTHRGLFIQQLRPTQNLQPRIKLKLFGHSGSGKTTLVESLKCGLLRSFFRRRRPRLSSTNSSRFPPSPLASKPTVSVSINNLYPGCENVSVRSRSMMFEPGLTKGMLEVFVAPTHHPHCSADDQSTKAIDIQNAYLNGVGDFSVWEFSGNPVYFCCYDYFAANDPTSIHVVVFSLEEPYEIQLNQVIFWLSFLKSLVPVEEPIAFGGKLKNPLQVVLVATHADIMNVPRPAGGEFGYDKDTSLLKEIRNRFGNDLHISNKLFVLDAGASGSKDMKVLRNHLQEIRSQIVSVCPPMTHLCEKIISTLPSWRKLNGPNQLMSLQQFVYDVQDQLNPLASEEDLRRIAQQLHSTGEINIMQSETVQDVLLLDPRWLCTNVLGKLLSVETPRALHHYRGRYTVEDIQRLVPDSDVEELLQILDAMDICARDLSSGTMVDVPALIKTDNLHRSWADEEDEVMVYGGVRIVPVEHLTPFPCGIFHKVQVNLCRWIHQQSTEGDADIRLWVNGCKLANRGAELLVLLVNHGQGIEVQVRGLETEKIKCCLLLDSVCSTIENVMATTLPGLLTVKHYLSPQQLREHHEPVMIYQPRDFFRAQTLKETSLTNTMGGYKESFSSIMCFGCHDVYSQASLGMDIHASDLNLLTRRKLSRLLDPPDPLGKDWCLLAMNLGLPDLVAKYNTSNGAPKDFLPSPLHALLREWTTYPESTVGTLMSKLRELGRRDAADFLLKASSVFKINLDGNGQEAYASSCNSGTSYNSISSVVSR
# MAPK1 (human) = MAPK1 (human) (UniProt P28482)
# EPHA6 (human) = EPHA6 (human) (UniProt Q9UF33)
# CHEK1 (human) = CHEK1 (human) (UniProt O14757)
# WNK2 (human) = WNK2 (human) (UniProt Q9Y3S1)
# CDK4 CCND1 (human) = CDK4 CCND1 (human) (UniProt P24385+P11802)
# CDK4 CCND3 (human) = CDK4 CCND3 (human) (UniProt P30281+P11802)
# NEK3 (human) = NEK3 (human) (UniProt P51956)
# ROCK1 (human) = ROCK1 (human) (UniProt Q13464)
# PHKG2 (human) = PHKG2 (human) (UniProt P15735)
# TTK (human) = TTK (human) (UniProt P33981)
# CAMK2D (human) = CAMK2D (human) (UniProt Q13557)
# BRSK2 (human) = BRSK2 (human) (UniProt Q8IWQ3)
# BRSK2 (human), sequence (Q8IWQ3 whole entry, looked up): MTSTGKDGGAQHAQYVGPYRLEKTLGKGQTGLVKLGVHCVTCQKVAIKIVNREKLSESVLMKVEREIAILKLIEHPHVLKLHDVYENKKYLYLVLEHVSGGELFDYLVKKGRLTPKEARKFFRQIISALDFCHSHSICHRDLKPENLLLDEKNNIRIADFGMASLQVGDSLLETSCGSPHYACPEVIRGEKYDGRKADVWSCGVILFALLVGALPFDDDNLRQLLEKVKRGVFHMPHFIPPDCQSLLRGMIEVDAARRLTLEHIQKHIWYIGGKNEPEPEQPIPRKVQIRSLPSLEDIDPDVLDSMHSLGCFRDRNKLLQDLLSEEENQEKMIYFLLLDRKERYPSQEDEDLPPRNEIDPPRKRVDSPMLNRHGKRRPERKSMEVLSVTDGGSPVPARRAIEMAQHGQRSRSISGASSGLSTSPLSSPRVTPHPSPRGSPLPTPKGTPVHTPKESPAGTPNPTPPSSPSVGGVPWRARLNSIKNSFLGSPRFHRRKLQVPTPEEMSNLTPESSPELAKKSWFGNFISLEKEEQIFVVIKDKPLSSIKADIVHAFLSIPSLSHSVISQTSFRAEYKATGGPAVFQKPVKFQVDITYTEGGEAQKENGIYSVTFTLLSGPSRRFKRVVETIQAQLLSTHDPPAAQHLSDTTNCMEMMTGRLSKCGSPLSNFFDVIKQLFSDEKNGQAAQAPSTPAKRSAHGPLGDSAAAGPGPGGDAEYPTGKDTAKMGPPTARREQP
# NLK (human) = NLK (human) (UniProt Q9UBE8)
# [2] = tested on: MKNK1 (human), Q9BUB5 [T385D; 165-205 del]
# MKNK1 (human), Q9BUB5 [T385D; 165-205 del], sequence (Q9BUB5 whole entry, looked up, stated change not applied): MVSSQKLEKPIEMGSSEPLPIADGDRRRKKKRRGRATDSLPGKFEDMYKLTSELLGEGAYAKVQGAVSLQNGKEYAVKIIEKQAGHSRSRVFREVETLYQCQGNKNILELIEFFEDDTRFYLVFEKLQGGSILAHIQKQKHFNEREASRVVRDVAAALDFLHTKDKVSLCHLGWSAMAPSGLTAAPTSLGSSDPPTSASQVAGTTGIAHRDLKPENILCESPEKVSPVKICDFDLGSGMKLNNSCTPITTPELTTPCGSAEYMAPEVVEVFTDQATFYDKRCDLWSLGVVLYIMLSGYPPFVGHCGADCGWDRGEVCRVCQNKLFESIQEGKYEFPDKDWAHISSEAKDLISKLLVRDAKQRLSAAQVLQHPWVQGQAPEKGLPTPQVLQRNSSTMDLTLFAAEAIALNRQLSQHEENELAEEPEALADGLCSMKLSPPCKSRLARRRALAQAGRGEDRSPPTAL
# FLT4 (human), P35916 [Q890H], sequence (P35916 whole entry, looked up, stated change not applied): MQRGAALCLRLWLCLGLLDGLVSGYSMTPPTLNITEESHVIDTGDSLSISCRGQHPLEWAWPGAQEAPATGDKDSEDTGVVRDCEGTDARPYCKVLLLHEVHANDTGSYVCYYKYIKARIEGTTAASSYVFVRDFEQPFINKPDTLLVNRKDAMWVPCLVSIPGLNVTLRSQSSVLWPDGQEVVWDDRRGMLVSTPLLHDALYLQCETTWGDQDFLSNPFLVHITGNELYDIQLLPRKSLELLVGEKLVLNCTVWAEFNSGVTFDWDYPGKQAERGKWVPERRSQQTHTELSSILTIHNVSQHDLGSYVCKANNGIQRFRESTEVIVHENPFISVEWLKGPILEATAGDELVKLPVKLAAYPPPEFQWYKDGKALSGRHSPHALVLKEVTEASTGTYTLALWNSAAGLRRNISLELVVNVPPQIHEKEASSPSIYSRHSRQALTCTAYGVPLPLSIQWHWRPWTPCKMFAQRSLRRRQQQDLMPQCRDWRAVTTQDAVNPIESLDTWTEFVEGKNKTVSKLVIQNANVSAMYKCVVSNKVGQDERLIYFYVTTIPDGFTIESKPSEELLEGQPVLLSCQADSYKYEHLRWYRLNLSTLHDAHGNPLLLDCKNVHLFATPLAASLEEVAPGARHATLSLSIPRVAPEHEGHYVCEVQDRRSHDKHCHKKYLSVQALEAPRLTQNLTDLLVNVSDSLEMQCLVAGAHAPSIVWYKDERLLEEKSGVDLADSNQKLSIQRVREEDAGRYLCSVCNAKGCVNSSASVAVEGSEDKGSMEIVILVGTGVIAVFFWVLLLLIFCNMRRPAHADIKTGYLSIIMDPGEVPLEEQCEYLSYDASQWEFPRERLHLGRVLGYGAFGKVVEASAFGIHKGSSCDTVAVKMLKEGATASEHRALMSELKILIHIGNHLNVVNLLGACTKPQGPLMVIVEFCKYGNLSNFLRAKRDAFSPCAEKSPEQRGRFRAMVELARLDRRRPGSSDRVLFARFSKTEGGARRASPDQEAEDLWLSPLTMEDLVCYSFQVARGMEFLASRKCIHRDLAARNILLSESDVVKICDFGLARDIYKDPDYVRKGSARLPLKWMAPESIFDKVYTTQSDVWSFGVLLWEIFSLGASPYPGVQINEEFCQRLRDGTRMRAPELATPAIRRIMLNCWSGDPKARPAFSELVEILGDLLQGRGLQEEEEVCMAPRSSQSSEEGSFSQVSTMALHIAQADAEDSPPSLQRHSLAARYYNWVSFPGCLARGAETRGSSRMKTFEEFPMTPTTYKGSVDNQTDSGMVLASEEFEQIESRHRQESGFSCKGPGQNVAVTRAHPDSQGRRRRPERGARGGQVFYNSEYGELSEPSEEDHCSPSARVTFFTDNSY
compound,measurement,setting,value
Cc1cccc(-c2nc(C(C)(C)C)[nH]c2-c2ccc3c(c2)OCO3)n1,residual activity,RPS6KA3 KD1 KD2 (human),82.4%
same,residual activity,ULK3 (human),80.4%
same,residual activity,FLT3 (human),96.2%
same,residual activity,ADRBK2 (human),96.3%
same,residual activity,[1],99.8%
same,residual activity,DSTYK (human),89.1%
same,residual activity,ALK (human),103%
same,residual activity,MARK1 (human),85.1%
same,residual activity,STK38 (human),91.7%
same,residual activity,AKT2 (human),80.1%
same,residual activity,IRAK1 (human),118%
same,residual activity,TNK2 (human),99.3%
same,residual activity,SRPK2 (human),95.8%
same,residual activity,MATK (human),100%
same,residual activity,PBK (human),103%
same,residual activity,SIK2 (human),91.4%
same,residual activity,GSG2 (human),78.7%
same,residual activity,MYO3B (human),79.2%
same,residual activity,DCLK2 (human),101%
same,residual activity,OXSR1 (human),103%
same,residual activity,WEE1 (human),81.5%
same,residual activity,PDGFRA (human),94.1%
same,residual activity,STK4 (human),98.7%
same,residual activity,DYRK3 (human),102%
same,residual activity,CDK7 CCNH MNAT1 (human),106%
same,residual activity,NUAK2 (human),138%
same,residual activity,TLK2 (human),103%
same,residual activity,DAPK1 (human),102%
same,residual activity,MAPK1 (human),95.8%
same,residual activity,EPHA6 (human),92.7%
same,residual activity,CHEK1 (human),89.8%
same,residual activity,WNK2 (human),105%
same,residual activity,CDK4 CCND1 (human),105%
same,residual activity,CDK4 CCND3 (human),102%
same,residual activity,NEK3 (human),85.6%
same,residual activity,ROCK1 (human),101%
same,residual activity,PHKG2 (human),107%
same,residual activity,TTK (human),89%
same,residual activity,CAMK2D (human),100%
same,residual activity,BRSK2 (human),99.3%
same,residual activity,NLK (human),87.9%
same,residual activity,[2],86.8%
N#C/C(=C\c1ccc(O)c(O)c1)C(=O)NCc1ccccc1,residual activity,RPS6KA3 KD1 KD2 (human),100%
same,residual activity,ULK3 (human),71.2%
same,residual activity,FLT3 (human),92.8%
same,residual activity,ADRBK2 (human),91.4%
same,residual activity,[1],87.7%
same,residual activity,DSTYK (human),91%
same,residual activity,ALK (human),105%
same,residual activity,MARK1 (human),93.8%
same,residual activity,STK38 (human),99.1%
same,residual activity,AKT2 (human),98.4%
same,residual activity,IRAK1 (human),154%
same,residual activity,TNK2 (human),98.3%
same,residual activity,SRPK2 (human),96.6%
same,residual activity,MATK (human),86.3%
same,residual activity,PBK (human),84.2%
same,residual activity,SIK2 (human),99.7%
same,residual activity,GSG2 (human),104%
same,residual activity,MYO3B (human),88.3%
same,residual activity,DCLK2 (human),101%
same,residual activity,OXSR1 (human),101%
same,residual activity,WEE1 (human),89.9%
same,residual activity,PDGFRA (human),110%
same,residual activity,STK4 (human),95.9%
same,residual activity,DYRK3 (human),99.6%
same,residual activity,CDK7 CCNH MNAT1 (human),120%
same,residual activity,NUAK2 (human),131%
same,residual activity,TLK2 (human),105%
same,residual activity,DAPK1 (human),99.7%
same,residual activity,MAPK1 (human),92.2%
same,residual activity,EPHA6 (human),95.7%
same,residual activity,CHEK1 (human),89.2%
same,residual activity,WNK2 (human),104%
same,residual activity,CDK4 CCND1 (human),109%
same,residual activity,CDK4 CCND3 (human),98%
same,residual activity,NEK3 (human),95.1%
same,residual activity,ROCK1 (human),99.7%
same,residual activity,PHKG2 (human),96%
same,residual activity,TTK (human),103%
same,residual activity,CAMK2D (human),104%
same,residual activity,BRSK2 (human),99.3%
same,residual activity,NLK (human),110%
same,residual activity,[2],77.8%

# From the kinase profiling compilation of Christmann-Franck et al. (2016)
